Assay results reported in paper PMC9108603, “Microbial Metabolite Inspired β‐Peptide Polymers Displaying Potent and Selective Antifungal Activity” (Advanced Science, 2022).
Values after ≈ are worked out from the molar mass of the structure shown.

Legend:
various mammalian cells = assay: Cytotoxicity, MTT assay, summary over cell types; type: cell-based; details: HUVEC, RAW264.7, LO2, COS7, NCM‐460, 24 h, read-out: IC50 for cells other than fibroblast (range)
Protocol: Cytotoxicity assay. Cytotoxicity tests were performed on NIH 3T3 fibroblast cells, endothelial cells (HUVEC), macrophage (RAW264.7), liver cells (LO2), kidney cells (COS7) and enterocyte (NCM-460) using MTT assay. Cells were cultured in DMEM supplemented with 10% FBS, 5% penicillin, 2 mM L-glutamine and incubated at 37 °C in 5% CO 2. Cells were harvested and seeded onto 96-well plates at a density of 1.0 × 10^4 cells per well and incubated for 24 h. On each plate, wells containing growth medium only and cells in growth medium without any antifungal agent were used as the negative and positive control, […]
concentrations ranging from 800 to 1.6 μg/mL. Medium in each cell-containing well was replaced with 100 μL of the corresponding polymer solution, and the plates were incubated at 37 °C for 24 h. Then, the solution in each well was switched to 100 µL MTT solution (1 mg/mL) and the plate was incubated in the dark at 37 °C for 4 h. […] Then 85 µL of the supernatant from each well was transferred to the corresponding well in a new plate, followed by absorbance measurement at 570 nm on a plate reader. […] The percentage of cell viability in each test well, relative to the positive control (which defines 100%) w as calculated from [% fibroblast growth = (A polymer – Ablank)/(Acontrol – A blank) × 100]. […]

C. albicans (K1 strain) = assay: DNA fragmentation assay (TUNEL); type: cell-based, Candida albicans; details: 50 μg/mL PDAP20, 8 h, 3.0 × 10^6 CFU/mL; late stage of apoptosis
Protocol: NAC concentration without affecting the normal cell growth. Wells containing cells in RPMI and 40 mM H 2O2 was used as positive controls. Cell suspension of C. albicans (K1 strain) at 6.0 × 10^6 CFU/mL was treated with 20 μM 2,7-dichlorodi-hydrofluorescein diacetate (DCFHDA) for 20 min. Then 50 µL of the cell suspension was added to each well, except the blank control (RMPI containing DCFHDA without cells). The fluorescence intensity of the induced ROS production was measured every 30 min using a plate reader at λ ex = 485 nm and λem = 530 nm. […]
Detection of mitochondrial membrane potential. Changes in mitochondrial membrane potential in C. albicans after incubation with PDAP 20 were analyzed using JC-1 as previously described. Mitochondrial membrane potential was detected with the fluorescent dye JC-1, which exists as aggregates (red) in normal cells with polarized mitochondria, whereas exists as monomers (green) in apoptotic cells with depolarized mitochondria. […]
DNA fragmentation assay. Apoptosis induced DNA fragments in C. albicans cells were analyzed using the TdT-mediated dUTP Nick-End Labeling (TUNEL) method. […]
fresh non-treated cell suspension was used as a control. The bright field and FITC fluorescence were collected under 100× oil immersion lenses, with representative areas in the images electronically amplified sixfold. […]

Compound	IC50 (various mammalian cells) [µg/mL]	DNA fragmentation, TUNEL (C. albicans (K1 strain))
C[C@@H]1[C@H](O)[C@@H](C)/C=C/C=C/C=C/C=C/C=C/C=C/C=C/[C@H](O[C@@H]2O[C@H](C)[C@@H](O)[C@H](N)[C@@H]2O)C[C@@H]2O[C@](O)(C[C@@H](O)C[C@@H](O)[C@H](O)CC[C@@H](O)C[C@@H](O)CC(=O)O[C@H]1C)C[C@H](O)[C@H]2C(=O)O [AmpB, amphotericin B]	8.8 to 128 (≈ 9.52 to 139 µM)	–
poly(DL‐diaminopropionic acid) [PDAP20]	–	strong green cytosol fluorescence
